Measurements published in the supplement of paper PMC5908809.

Legend:
[1] = system: normal NK cells expanded with K562-aAPC; experiment: percent inhibition of viability; higher = more inhibition; settings: 72 h, IL-2 2.5 ng/mL
Experimental: (§1)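 Drug sensitivity and resistance testing on K562-aAPC-expanded normal NK cells: 5 concentrations (10-fold steps over a 10,000-fold range), 72 h at 37 °C, viability by CellTiter-Glo normalised to DMSO and benzethonium chloride controls; DSS from the fitted curve.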

[2] = system: DERL-7 (IL-2 2.5 ng/mL); experiment: as above; settings: 72 h
[3] = system: IMC-1 (IL-2 20 ng/mL); experiment: as above; settings: 72 h
[4] = system: KAI3 (IL-2 2.5 ng/mL); experiment: as above; settings: 72 h
[5] = system: KHYG-1 (IL-2 2.5 ng/mL); experiment: as above; settings: 72 h
[6] = system: NK-92 (IL-2 2.5 ng/mL); experiment: as above; settings: 72 h
[7] = system: NK-YS (IL-2 2.5 ng/mL); experiment: as above; settings: 72 h
[8] = system: NKL (IL-2 2.5 ng/mL); experiment: as above; settings: 72 h
[9] = system: SNK-6 (IL-2 2.5 ng/mL); experiment: as above; settings: 72 h
[10] = system: YT (IL-2 2.5 ng/mL); experiment: as above; settings: 72 h
[11] = system: normal primary NK cells, pool 1 (3 donors) (IL-2 2.5 ng/mL); experiment: as above; settings: 72 h
[12] = system: normal primary NK cells, pool 1 (3 donors), resting (IL-2 0 ng/mL); experiment: as above; settings: 72 h
[13] = system: normal primary NK cells, pool 2 (3 donors) (IL-2 2.5 ng/mL); experiment: as above; settings: 72 h
[14] = system: normal primary NK cells, pool 3 (3 donors) (IL-2 2.5 ng/mL); experiment: as above; settings: 72 h
[15] = system: normal NK cells expanded with K562-aAPC; experiment: drug sensitivity score (DSS) (DSS units); higher = more sensitive; extreme values may be limits of the assay; settings: 72 h; IL-2 2.5 ng/mL
Experimental: as §1

[16] = system: DERL-7 (IL-2 2.5 ng/mL); experiment: as above; settings: 72 h
[17] = system: IMC-1 (IL-2 20 ng/mL); experiment: as above; settings: 72 h
[18] = system: KAI3 (IL-2 2.5 ng/mL); experiment: as above; settings: 72 h
[19] = system: KHYG-1 (IL-2 2.5 ng/mL); experiment: as above; settings: 72 h
[20] = system: NK-92 (IL-2 2.5 ng/mL); experiment: as above; settings: 72 h
[21] = system: NK-YS (IL-2 2.5 ng/mL); experiment: as above; settings: 72 h
[22] = system: NKL (IL-2 2.5 ng/mL); experiment: as above; settings: 72 h
[23] = system: SNK-6 (IL-2 2.5 ng/mL); experiment: as above; settings: 72 h
[24] = system: YT (IL-2 2.5 ng/mL); experiment: as above; settings: 72 h
[25] = system: normal primary NK cells, pool 1 (3 donors) (IL-2 2.5 ng/mL); experiment: as above; settings: 72 h
[26] = system: normal primary NK cells, pool 1 (3 donors), resting (IL-2 0 ng/mL); experiment: as above; settings: 72 h
[27] = system: normal primary NK cells, pool 2 (3 donors) (IL-2 2.5 ng/mL); experiment: as above; settings: 72 h
[28] = system: normal primary NK cells, pool 3 (3 donors) (IL-2 2.5 ng/mL); experiment: as above; settings: 72 h

O=C(Nc1cccc(C(F)(F)F)c1)Nc1cc(S(=O)(=O)NC2CC2)ccc1-c1ccsc1 [AGI-6780] (max concentration tested 10000 nM)
percent inhibition of viability [%]
Settings	1 nM	10 nM	100 nM	1000 nM	10000 nM
[1]	-7.15	-5.5	-5.48	-5.66	6.74
[2]	2.8	2.88	5.06	7.2	42.2
[3]	-3.83	-6.4	-1.13	-1.96	12.3
[4]	7.81	-7.37	-5.02	-1.47	24.4
[5]	0.2	-3.96	-1.95	2.69	43.5
[6]	-7.9	-10.9	-5.67	20.1	65.8
[7]	-0.22	0.5	-0.98	2.65	23.1
[8]	-8.69	-12.6	-8.03	-5.7	20.2
[9]	-7.22	11.7	2.33	11.1	32.3
[10]	-2.18	-6.24	-5.3	5.28	46.9
[11]	-6.68	-2.93	8.08	7.42	23.6
[12]	2.29	1.29	13	17.2	44.5
[13]	-16	-3.85	-3.48	9.29	20.2
[14]	-11.5	-1.88	-0.35	8.79	8.51

Settings	drug sensitivity score
[15]	0
[16]	3.34
[17]	0.03
[18]	0.81
[19]	2.61
[20]	6.57
[21]	1.21
[22]	0.4
[23]	2.72
[24]	3.31
[25]	1.25
[26]	4.5
[27]	1.59
[28]	0

Nc1nc2[nH]cnc2c(=S)[nH]1 [Thioguanine] (max concentration tested 10000 nM)
percent inhibition of viability [%]
Settings	1 nM	10 nM	100 nM	1000 nM	10000 nM
[1]	-4.14	-5.02	-5.79	6.11	56.7
[2]	-5.49	1.22	-5.6	8.62	87.2
[3]	-5.55	-1.21	-1.21	33.3	97.2
[4]	-7.74	-2.97	-0.62	15.1	78.8
[5]	-13.1	-8.14	-0.41	99.5	106
[6]	-10.2	-5.6	17.5	52.7	98.4
[7]	-7.28	-5.53	13.5	84.7	95.8
[8]	-14	-21.1	1.79	26.9	93.4
[9]	-10.4	-12.3	-12.4	52.4	96.7
[10]	-6.35	-2.99	5.94	87.9	105
[11]	2.84	12.9	10.3	6.9	52.7
[12]	1.38	16.6	9.25	15.6	37.5
[13]	-0.91	-2.84	9.06	9.05	55
[14]	-3.74	-0.43	9.27	10.8	44

Settings	drug sensitivity score
[15]	4.06
[16]	6.23
[17]	10
[18]	6.83
[19]	17.9
[20]	12.4
[21]	17.2
[22]	9.15
[23]	11.7
[24]	16.8
[25]	3.98
[26]	4.42
[27]	4.48
[28]	3.64

CNC(=O)c1cc(Oc2ccc(NC(=O)Nc3ccc(Cl)c(C(F)(F)F)c3)c(F)c2)ccn1 [Regorafenib] (max concentration tested 10000 nM)
percent inhibition of viability [%]
Settings	1 nM	10 nM	100 nM	1000 nM	10000 nM
[1]	3.1	-1.28	-0.64	-2.22	19.1
[2]	2.39	2.44	-0.06	27.7	70.5
[3]	-4.09	-5.72	3.85	6.77	39.6
[4]	-0.04	-3.7	-6.12	-2.83	85.1
[5]	-1.86	-1.02	1.17	11.2	87.3
[6]	0.49	12.1	12	37.9	85.7
[7]	-1	-1.21	3.83	15.4	67
[8]	-7.68	-18.9	-10.6	17.4	70.8
[9]	9.61	17.5	36.1	38.7	63.7
[10]	2	0.08	3.65	21.9	100
[11]	-13.1	1.52	-11	1.66	79.7
[12]	6.64	8.24	-7.13	12.5	79.3
[13]	-10.1	-16.9	-7.59	12.1	61
[14]	-11.7	-13.3	-6.26	6.56	48.1

Settings	drug sensitivity score
[15]	0.41
[16]	7.66
[17]	3.09
[18]	4.49
[19]	6.71
[20]	9.31
[21]	6.12
[22]	6.61
[23]	13.9
[24]	8.99
[25]	4.63
[26]	6.48
[27]	5.3
[28]	3.62
